Data from BindingDB's records for doi:10.1021/jm800043g (Amgen, 2008).

target: Hepatocyte growth factor receptor (Homo sapiens, UniProt P08581); assay: HTRF Kinase Inhibition Assay; settings: pH 7.4; 22 °C
Experimental: In vitro kinase assays were done to establish IC50 values against recombinant enzymes using homogeneous time-resolved fluorescence (HTRF) assay. Molecules were tested in a 10-point serial dilution using an ATP concentration of two thirds Km values that were determined for the enzymes and calculated using the Eadie-Hofstee and Lineweaver-Burke methods. The fluorescence ratios were read on a Rubystar instrument (BMG labtech Inc.).

Row | IC50 [nM] | Structure (SMILES)
1 | 1 | COc1ccc2c(OCc3nnc4ccc(-c5cc(C)cs5)nn34)ccnc2c1 [7-methoxy-4-{[6-(4-methylthiophen-2-yl)-[1,2,4]triazolo[4,3-a]pyridazin-3-yl]methoxy}quinoline]
2 | 2 | COc1ccc2c(OCc3nnc4ccc(-c5cccs5)nn34)ccnc2c1 [7-methoxy-4-{[6-(thiophen-2-yl)-[1,2,4]triazolo[4,3-a]pyridazin-3-yl]methoxy}quinoline]
3 | 4 | COc1ccc2c(OCc3nnc4ccc(-c5ccsc5)nn34)ccnc2c1 [7-methoxy-4-{[6-(thiophen-3-yl)-[1,2,4]triazolo[4,3-a]pyridazin-3-yl]methoxy}quinoline]
